Assay results reported in PubChem BioAssay (NCI).
Several values for one entry are separate records, joined by “and”; a condition that tells them apart may be missing. Equal values may be shown once.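 48-hour exposure; five concentrations; linearly interpolated endpoints. GI50 is the concentration that inhibits growth by half. TGI denotes the concentration required for complete inhibition of growth.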

Experiments:
Assay in all cases: DTP human tumour cell line panel, 48 h
HCT-116 colon = test system: HCT-116 colon
HCC-2998 colon = test system: HCC-2998 colon
SK-OV-3 ovarian = test system: SK-OV-3 ovarian
MALME-3M melanoma = test system: MALME-3M melanoma
NCI-H522 lung = test system: NCI-H522 lung
ACHN renal = test system: ACHN renal
K-562 leukemia = test system: K-562 leukemia
SNB-19 CNS = test system: SNB-19 CNS
A549 NSCLC = test system: A549 NSCLC
EKVX NSCLC = test system: EKVX NSCLC

| Compound | TGI (HCT-116 colon) | TGI (HCC-2998 colon) | TGI (SK-OV-3 ovarian) | TGI (MALME-3M melanoma) | TGI (NCI-H522 lung) | TGI (ACHN renal) | TGI (K-562 leukemia) | TGI (SNB-19 CNS) | TGI (A549 NSCLC) | TGI (EKVX NSCLC) | GI50 (SK-OV-3 ovarian) | GI50 (A549 NSCLC) | GI50 (MALME-3M melanoma) |
| --- | --- | --- | --- | --- | --- | --- | --- | --- | --- | --- | --- | --- | --- |
| O=C1c2cc([N+](=O)[O-])sc2C(=O)c2ccsc21 | 0.816 µM | 1.7 µM | 2.95 µM | 0.327 µM | 0.379 µM | 0.768 µM | 0.191 µM | 3.33 µM | 3.51 µM | 3.01 µM | – | – | – |
| O=C(Oc1cccc(Cl)c1)c1cc2cc(CCl)ccc2oc1=O | > 100 µM | 34.4 µM | > 100 µM | 33.5 µM | 49.5 µM | 38.5 µM | > 100 µM | > 100 µM | > 100 µM | > 100 µM | – | – | – |
| CC(C)c1cccc(C(C)C)c1OS(=O)(=O)NC(=O)OC(C(F)(F)F)C(F)(F)F | > 100 µM | > 100 µM | > 100 µM | > 100 µM | > 100 µM | > 100 µM | 66.6 µM | > 100 µM | > 100 µM | > 100 µM | – | – | – |
| O=C1NC2(C=Cc3c(ccc4ccccc34)O2)Oc2ccccc21 (stereo unspecified) | 40.8 µM | – | – | > 100 µM | 38.8 µM | 77.7 µM | > 100 µM | 79.1 µM | > 100 µM | 82.3 µM | – | – | – |
| CN(C)CCNc1nc2c(no[n+]2[O-])c2ccccc12 | 52.9 µM | 59.2 µM | 98.8 µM | 37.1 µM | 65.4 µM | 40.4 µM | 87.7 µM | 79 µM | 33.5 µM | 73.9 µM | – | – | – |
| O=C1N[C@@H](COc2ccc(C=Nc3ccc(CCc4ccc(N=Cc5ccc(OC[C@@H]6COC(=O)N6)cc5)cc4)cc3)cc2)CO1 | > 100 µM | – | > 100 µM | > 100 µM | > 100 µM | > 100 µM | > 100 µM | > 100 µM | > 100 µM | > 100 µM | – | – | – |
| CC(=O)N(CN1C(=O)CCC1C(=O)O)c1ccccc1Cl (stereo unspecified) | > 100 µM | > 100 µM | > 100 µM | > 100 µM | > 100 µM | > 100 µM | > 100 µM | > 100 µM | > 100 µM | > 100 µM | – | – | – |
| O=S(=O)(/N=C(\NO)Nc1ccc(Cl)cc1)c1ccc(-c2ccccn2)s1 | > 100 µM | – | > 100 µM | 96.8 µM | 31.8 µM | > 100 µM | > 100 µM | > 100 µM | > 100 µM | 98.8 µM | – | – | – |
| COP(C)(=O)C(Cc1c[nH]c2ccccc12)NC(=O)OCc1ccccc1 (stereo unspecified) | > 100 µM | > 100 µM | > 100 µM | > 100 µM | – | > 100 µM | > 100 µM | > 100 µM | > 100 µM | > 100 µM | – | – | – |
| CSC1=C(C(=O)Nc2ccccc2)C(N)=NC1=O | > 100 µM | > 100 µM | > 100 µM | > 100 µM | > 100 µM | – | > 100 µM | > 100 µM | > 100 µM | > 100 µM | – | – | – |
| CCCCCCCCCCSCC(CO)NC(=O)/C=C/c1c(C)[nH]c(=O)[nH]c1=O (stereo unspecified) | > 50 µM | 7.38 µM and 11.5 µM | > 50 µM | 6.28 µM and 2.78 µM | 1.68 µM and 6.76 µM | – | > 50 µM | 13.7 µM and 12.4 µM | > 50 µM | > 42.3 µM | 1.82 µM and 7.04 µM | > 44.4 µM | – |
| Cc1ccc2c(=O)c(-c3n[nH]c(=S)s3)c[nH]c2n1 | > 100 µM | – | – | > 100 µM | > 100 µM | > 100 µM | > 100 µM | > 100 µM | > 100 µM | > 100 µM | – | – | – |
| CC(=O)OCC1OC(N2C(S)=C(C#N)C(c3ccco3)C(C(C)=O)=C2c2ccccc2)C(OC(C)=O)C(OC(C)=O)C1OC(C)=O (stereo unspecified) | > 100 µM | > 100 µM | – | > 100 µM | > 100 µM | – | > 100 µM | > 100 µM | > 100 µM | – | – | – | – |
| COc1ccccc1N=C1SCCN1C(=S)Nc1ccc(S(=O)(=O)/N=C/N(C)C)cc1 | > 100 µM | > 100 µM | > 100 µM | – | – | > 100 µM | > 100 µM | > 100 µM | > 100 µM | 63.2 µM | – | – | – |
| c1ccc(C2[C@@H]3CCCc4ccccc4C3=NN2c2ccccc2)cc1 (stereo partly specified) | > 100 µM | > 100 µM | – | > 100 µM | > 100 µM | > 100 µM | > 100 µM | > 100 µM | > 100 µM | > 100 µM | – | – | – |
| O=P1(c2ccccc2)C2=CCC=CC2C(c2ccccc2)N1Cc1ccccc1 (stereo unspecified) | 32.2 µM | – | 31 µM | 32.9 µM | 24.6 µM | 30.4 µM | 35.5 µM | 41.2 µM | 32.3 µM | 28.7 µM | – | – | – |
| CCC1(O)CC(OC2CC(N(C)C)C(OC3CC(O)C(OC4CCC(=O)C(C)O4)C(C)O3)C(C)O2)c2c(O)c3c(c(O)c2C1C(=O)OC)C(=O)c1cccc(O)c1C3=O (stereo unspecified) | – | 0.04 µM | – | 0.0667 µM and 0.0267 µM | 0.0549 µM | – | 0.0125 µM | – | – | – | – | – | 0.0106 µM |
